Source: PMC6503114, “Application of Antimicrobial Peptides of the Innate Immune System in Combination With Conventional Antibiotics—A Novel Way to Combat Antibiotic Resistance?” (Frontiers in Cellular and Infection Microbiology, 2019)
Where two headings read alike, the source gives them in different places. Where no end group is shown, it is not given here.

Legend:
human erythrocytes = system: human erythrocytes
Experimental: To obtain erythrocytes, heparinized blood was centrifuged for 10 min at 300 g and 4°C. The supernatant liquid was removed, 10 ml of cooled PBS containing 4 mM of EDTA (pH 7.4) was added to the precipitate, and the mixture was centrifuged for 10 min under the same conditions. Then, red blood cells were washed three more times with cooled PBS. The sedimented red blood cells were used for the hemolytic test.
(§1) Here, [MEC A] and [MEC B] are the minimum effective concentrations (MEC) of substances A and B, when they are used alone. […] [A] and [B] are respective concentrations of substances A and B in their combination, where the same statistically significant difference is detected. A non-parametric Mann-Whitney U-test (p < 0.05 or p < 0.01) was used for the mentioned statistical comparison.
(§2) We have chosen the same intervals as that of FICI to determine synergy, additivity, independent action, and antagonism based on the minimal FECI values. However, in case of cytotoxic or hemolytic effect we were interested mainly in testing the possibility of additive or synergistic interaction itself, and not in assessing the exact magnitude of such interaction. Thus, in contrast to the “checkerboard titration” method used for combined antimicrobial activity investigation, studying the combined cytotoxic effect, we considered only two combinations of concentrations for the substances A and B in the mixture: • (½ MEC A + ½ MEC B), which, if found effective, provides the FECI value of 1 (the threshold value for additivity); • (¼ MEC A + ¼ MEC B), which, if found effective, provides the FECI value of 0.5 (the threshold value for synergetic interaction).
(§3) When action on tumor cells was tested in combination with antitumor antibiotic the lower concentrations up to ( 1/16 MEC A + 1/16 MEC B) as in checkerboard titration were additionally examined to assess the magnitude of synergistic effect more precisely. The final conclusion was made based on the three independent experiments.
Two hundred eighty microliters of erythrocyte precipitate obtained as described in section Eukaryotic Cells was added into the sterile 15 ml tube and its volume was adjusted to 10 ml with cooled PBS. Using 0.5 ml plastic tubes, 3 μl of the tested compound serially diluted in PBS or of the combination of two compounds were mixed with the 27 μl of the prepared erythrocyte suspension for each sample. For positive control (100% lysis of erythrocytes) 3 μl of the detergent (10% Triton X-100 solution in PBS) were added to the 27 μl of the erythrocyte suspension, and for negative control (0% lysis of erythrocytes) 3 μl of the PBS were used instead of any cell-damaging compound. […] After incubation, the hemolysis process was stopped by the addition of 75 μl of cooled PBS. The samples were centrifuged at 5,000 g and 4°C for 4 min. The optical density of the supernatants was measured at a wavelength of 540 nm using SpectraMax 250 Spectrophotometer (Molecular Devices, USA). The experiments were repeated three times. In each experiment all the test or control samples were made in triplicates. The percentage of hemolysis of erythrocytes was assessed by the following formula:
where ODsample, OD0%lysis, and OD100%lysis are values of the OD at 540 nm for the test sample, negative (0% lysis) control, and positive (100% lysis) control, respectively. However, due to the design of the study of combined action, described above in Combined Hemolytic or Cytotoxic Action, the obtained ODsample and OD0%lysis values were rather used to determine MECs and FECI by the Mann-Whitney U-test (p < 0.05, n1, n2 = 3).

Human neutrophils = system: Human neutrophils
Experimental: The pellet formed under the Ficoll-400 layer after separation contained both neutrophils and erythrocytes. It was also transferred into a separate tube, where the red blood cells were lysed with 0.83% ammonium chloride solution, which was added in a ratio of 1:4. After the thorough mixing, the suspension was incubated for 10 min at room temperature, and then centrifuged for 10 min at 300 g and 4°C. The resulting precipitate containing neutrophils was washed twice with the sterile PBS.
We calculated Fractional Effective Concentration Index (FECI), which could be seen as a particular case of the interaction index (I) proposed by Berenbaum ([1977]) or of the similar combination index (CI) proposed by Chou and Talalay ([1983]), according to the equation below: […]
as §1, §2, §3
Standard MTT-test (Mosmann, [1983]) was used for the examination of the cytotoxic activity of antimicrobial compounds and their combinations toward varied eukaryotic cells. Briefly, cell suspensions in RPMI-1640 prepared as described in Eukaryotic Cells were dispensed into the 96-well microplates (2 × 10^5 cells/well). Then, serial dilutions of AMPs, or other antibiotic compounds, or their mixtures in RPMI-1640 were added. In positive controls (100% cell survival) the according volume of RPMI-1640 without test substances was added instead. The final volume in each well was 100 μl. Negative controls (0% cell survival) were made with 100 μl of the sterile RPMI-1640. The plates were incubated at 37°C under 5% CO2 for 24 h. Four hours before the end of incubation, 10 μl of metabolic marker MTT−3-(4,5-dimethylthiazol-2-yl)-2,5-diphenyltetrazolium bromide (5 mg/ml, diluted in PBS) was added to each well. Incubation was stopped by adding 90 μl of isopropanol containing 0.04 M HCl. Content of the wells was thoroughly mixed, so that the formazan crystals, formed in case of the reduction of MTT in presence of actively metabolizing cells, were fully dissolved. The optical density of the samples was evaluated at 540 nm, subtracting the background absorbance at 690 nm, by SpectraMax 250 Spectrophotometer (Molecular Devices, USA). The experiments were repeated at least three times. In each experiment test samples were made in triplicates and control samples were made in hexaplicates.

[1] = Human neutrophils, normal cells, MTT, 24 h

Compound: Polymyxin B
- MEC of hemolysis of human erythrocytes (human erythrocytes; 30 min, 37°C, no blood serum): >50 [100] μM
- MEC of cytotoxic action (Human neutrophils; [1]): >50 [100] μM

Compound: CNC(C)C1CCC(N)C(OC2C(N)CC(N)C(OC3OCC(C)(O)C(NC)C3O)C2O)O1 (stereo not drawn) [Gentamicin]
- MEC of hemolysis of human erythrocytes (human erythrocytes; human, 30 min): >50 [100] μM
- MEC of cytotoxic action (Human neutrophils; human, 24 h): 50 µM

Compound: RFRLPFRRPPIRIHPPPFYPPFRRFL-NH2 (C-terminus assumed) [ChBac3.4]
- MEC of hemolysis of human erythrocytes (human erythrocytes): >50 [100] μM
- MEC of cytotoxic action (Human neutrophils): >20 [40] μM

Compound: CC1COc2c(N3CCN(C)CC3)c(F)cc3c(=O)c(C(=O)O)cn1c23 (stereo not drawn) [Ofloxacin]
- MEC of hemolysis of human erythrocytes (human erythrocytes; human, 30 min): >50 [100] μM
- MEC of cytotoxic action (Human neutrophils; human, 24 h): >50 [100] μM

Compound: CO[C@H]1/C=C/O[C@@]2(C)Oc3c(C)c(O)c4c(O)c(c(/C=N/N5CCN(C)CC5)c(O)c4c3C2=O)NC(=O)/C(C)=C\C=C\[C@H](C)[C@H](O)[C@@H](C)[C@@H](O)[C@@H](C)[C@H](OC(C)=O)[C@@H]1C [Rifampicin]
- hemolytic action (in words) (human erythrocytes): slight hemolityc action
- MEC of hemolysis of human erythrocytes (human erythrocytes; human, 30 min): 20 µM
- MEC of cytotoxic action (Human neutrophils; human, 24 h): 20 µM

Compound: Cc1onc(-c2ccccc2)c1C(=O)N[C@@H]1C(=O)N2[C@@H]1SC(C)(C)[C@@H]2C(=O)O [Oxacillin]
- hemolytic action (in words) (human erythrocytes): slight hemolityc action
- MEC of hemolysis of human erythrocytes (human erythrocytes; human, 30 min): 25 µM
- MEC of cytotoxic action (Human neutrophils; human, 24 h): >50 [100] μM

Compound: Lysozyme: egg white lysozyme, antimicrobial protein, from BioChemica
- MEC of hemolysis of human erythrocytes (human erythrocytes): >50 [100] μM
- MEC of cytotoxic action (Human neutrophils): >50 [100] μM

Compound: CC[C@H](C)[C@H](NC(=O)[C@H](CCCCN)NC(=O)[C@H](CCC(=O)O)NC(=O)[C@H](CCCCN)NC(=O)[C@H](CO)NC(=O)[C@H](CCCCN)NC(=O)[C@H](CCCNC(=N)N)NC(=O)[C@H](Cc1ccccc1)NC(=O)[C@H](Cc1ccccc1)NC(=O)[C@H](CC(=O)O)NC(=O)CNC(=O)[C@H](CC(C)C)NC(=O)[C@@H](N)CC(C)C)C(=O)NCC(=O)N[C@@H](CCCCN)C(=O)N[C@@H](CCC(=O)O)C(=O)N[C@@H](Cc1ccccc1)C(=O)N[C@@H](CCCCN)C(=O)N[C@@H](CCCNC(=N)N)C(=O)N[C@H](C(=O)N[C@H](C(=O)N[C@@H](CCC(N)=O)C(=O)N[C@@H](CCCNC(=N)N)C(=O)N[C@H](C(=O)N[C@@H](CCCCN)C(=O)N[C@@H](CC(=O)O)C(=O)N[C@@H](Cc1ccccc1)C(=O)N[C@@H](CC(C)C)C(=O)N[C@@H](CCCNC(=N)N)C(=O)N[C@@H](CC(N)=O)C(=O)N[C@@H](CC(C)C)C(=O)N[C@H](C(=O)N1CCC[C@H]1C(=O)N[C@@H](CCCNC(=N)N)C(=O)N[C@H](C(=O)N[C@@H](CCC(=O)O)C(=O)N[C@@H](CO)C(=O)O)[C@@H](C)O)C(C)C)[C@@H](C)CC)C(C)C)[C@@H](C)CC [LL-37]
- MEC of hemolysis of human erythrocytes (human erythrocytes; 30 min, 37°C, no blood serum): 5.0 µM
- MEC of cytotoxic action (Human neutrophils; [1]): 10 µM
